Measured values from patent US12565481B2, “6,7-dimethoxy-3-(pyridin-2-yl)quinoline compounds for inhibiting RET” (Guangzhou Baiyunshan Pharmaceutical Holdings Co., Ltd. …, priority 2020, dated 2026).

Assay: Pharmacokinetics study of mice
Assay type: in vivo
Settings: mouse, plasma; male CD-1 mice, 2.5 mpk oral administration vs 0.5 mpk intravenous injection
Description: The purpose of this experiment was to study the pharmacokinetics of the test compound in the plasma of male CD-1 mice after intravenous injection and oral administration.
The animals were randomly divided into two groups with 2 males in each group. The compounds were formulated into prescribed preparations. Intravenous formulations were formulated with 5% DMSO/95% (6% hydroxypropyl-β-cyclodextrin) to give a clear solution, and oral preparations were formulated with 0.1% Tween80/0.5% HPMC aqueous solution to give a homogeneous suspension.
Whole blood samples were collected from the saphenous vein of the animals 5 minutes, 15 minutes, 30 minutes, 1 hour, 2 hours, 4 hours, 8 hours, 12 hours, and 24 hours after administration. The whole blood sample was added to the centrifuge tube containing anticoagulant, and centrifuged at 3200 g for 10 minutes at 4° C. The supernatant of plasma was taken, frozen quickly on dry ice, and then stored in a −70±10° C. refrigerator until LC-MS/MS analysis.
WinNonlin™ Version 6.3.0 (Pharsight, Mountain View, Calif.) pharmacokinetic software was used to process the plasma drug concentration data of the compounds with a non-compartmental model. The peak concentration (Cmax), peak time (Tmax) and quantifiable end time were obtained directly from the blood drug concentration-time profile. […]

For CCN1CCN(Cc2cc(F)c(NC(=O)Cc3ccc(-c4cnc5cc(OC)c(OC)cc5c4)nc3)cc2C(F)(F)F)CC1 [Compound 1], the bioavailability was 48.9%.
